In patent US20250074981A1, “COMBINATION THERAPY WITH DEXAMETHASONE AND TUMOR-SPECIFIC T CELL ENGAGING MULTI-SPECIFIC ANTIBODIES FOR TREATING CANCER” (MEMORIAL SLOAN-KETTERING CANCER CENTER, priority 2021, published 2025):
Where two headings read alike, the source gives them in different places.

How the values were obtained:
GD2(+) osteosarcoma PDX = experiment: Bioluminescence imaging of Luc(+) GD2-EATs in GD2(+) osteosarcoma PDX; type: in vivo, mice; conditions: GD2-EATs plus HD dexamethasone
Procedure: (§1) T cells isolated from peripheral blood were stimulated with Dynabeads™ Human T-Activator CD3/CD28 for 24 hours. T cells were transduced with retroviral constructs containing tdTomato and click beetle red luciferase in RetroNectin-coated 6-well plates in the presence of IL-2 (100 IU/ml) and protamine sulfate ([…]). Transduced T cells were cultured for 8 days before being used in animal experiments.
(§2) Mice were anesthetized and imaged after intravenous injection of 3 mg of D-luciferin (Gold Biotechnology, St. Louis, MO) on different days post T cell injection. Images were acquired using IVIS Spectrum CT In Vivo Imaging System (Caliper Life Sciences, Waltham, MA). Bioluminescence images were overlaid with photographs, and regions of interest (ROI) were drawn based on the location and contour of tumor using Living image 2.60 (Xenogen, Alameda, CA). The total counts of photons (photon/s) were obtained. Bioluminescence signals (total flux, photon/s) before T cell injection were used as baselines.

M37 breast cancer PDX = experiment: In vivo anti-tumor effect in M37 breast cancer PDX; set-up: species or system mice; conditions: low and intermediate dosage of dexamethasone; due to diarrhea from C. difficile infection
Procedure: Increasing dosage of dexamethasone was tested as a premedication administered i.p. before the i.v. injection of HER2×CD3-BsAb plus activated human T cells in mice xenografted s.c. with M37 breast cancer PDX using the schedule detailed in FIG. 9A. The three dosages of intraperitoneal dexamethasone were 2 mg/kg (Dex 2), 8 mg/kg (Dex 8) and 32 mg/kg (Dex 32) once a week×3 weeks.

hVEGF = experiment: Serum VEGF levels by Quantikine ELISA, HGSOC1 ovarian cancer PDX mice; type: in vivo, human; conditions: day 5 post-treatment, 48 hours after 2nd dose; with HER2-EATs
Procedure: Concentration of VEGF serum levels were measured using a commercially available enzyme-linked immunosorbent assay (ELISA) kit (R&D Systems, Minneapolis, MN) according to the manufacturer's instruction. Briefly, serum samples and standards were incubated for 2 hours in a microplate pre-coated with human or murine anti-VEGF monoclonal antibodies. After washing three times, enzyme-linked anti-VEGF polyclonal antibodies were added. Unbound antibodies were removed by washing. […] All samples were run in triplicate, and a standard curve was established for each assay. The sensitivity of the assay was <9.0 pg/ml. Inter- and intra-assay variations were <10%.
Measurement of serum VEGF levels. Serum VEGF levels in murine plasma were measured using Quantikine enzyme-linked immunosorbent assay (ELISA) kit (R and D Systems Cat #DVE00, RRID:AB_2800364) according to the manufacturer's instruction. […] All samples were run in triplicate, and a standard curve was established for each assay.

[1] = system: osteosarcoma cell line 143B xenografts; type: in vivo, mice; conditions: agents added to GD2-EATs, vs GD2-EATs alone
Procedure: Immunohistochemistry (IHC) and immunofluorescence (IF) staining were performed at the MSK Molecular Cytology Core Facility using Discovery XT processor (Ventana Medical Systems, Oro Valley, AZ) as described by Xu H, et al., Cancer Immunol Res 3: 266-277 (2015), the entirety of which is incorporated herein by reference. Tumor samples were fixed and embedded in paraffin. Anti-human CD45, anti-human CD3, and anti-mouse CD68 antibodies were used, which was followed by biotinylated secondary antibody. The detection was performed using a DAB detection kit (Ventana Medical Systems, Oro Valley, AZ) or Alexa Fluor™ 488 or 568 Tyramide Reagent (Invitrogen, Carlsbad, CA). IHC images were captured from tumor sections using a Nikon ECLIPSE Ni-U microscope and NIS-Elements 4.0 imaging software. IF images were captured using Leica Inverted Confocal SP8 and processed with Imaris (Bitplane, Zurich, Switzerland). Antigen positive cells were counted with Qupath 0.1.2.
Immunohistochemistry and immunofluorescence staining. Immunohistochemistry (TIC) staining were performed at the MSK Molecular Cytology Core Facility using Discovery XT processor (Ventana Medical Systems). Tumor samples were fixed and embedded in paraffin. […] Antigen positive cells were counted with Qupath 0.1.2 or using positive pixel count analysis.

[2] = system: HER2(+) osteosarcoma PDXs, HGSOS; experiment: Bioluminescence imaging of Luc(+) HER2-EATs in HER2(+) osteosarcoma PDX (HGSOS / HGSOC1); type: in vivo, mice; conditions: control HER2-EATs
Procedure: as §1, §2
T cell transduction. T cells isolated from peripheral blood were stimulated with Dynabeads™ Human T-Activator CD3/CD28 for 24 hours. T cells were transduced with retroviral constructs containing tdTomato and click beetle red luciferase in RetroNectin-coated 6-well plates in the presence of IL-2 (100 IU/ml) and protamine sulfate (4 μg/mL). […]

[3] = system: TH1 cell cytokines (IL-2, IFN-γ, and TNF-α); experiment: TH1 cell cytokine levels after GD2-EATs with VEGF blockades, neuroblastoma PDX mice; type: in vivo; conditions: 2 hours after the first dose of GD2-EATs; combination group
Procedure: Cytokine release assays. EAT-induced human cytokine release was analyzed in vitro and in vivo. Human Th1 cell released cytokines were analyzed by LEGENDplex™ Human Th1 Panel (Biolegend, Cat #741035). Five T cell cytokines including IL-2, IL-6, IL-10, IFN-γ and TNF-α were analyzed using mouse serum after treatment with EATs with or without VEGF blockade.

[4] = system: neuroblastoma patient-derived xenografts; experiment: IHC positive pixel count analysis of CD3, CD4, CD8 T cells in neuroblastoma PDXs; type: in vivo, mice; conditions: day 10 post-treatment; added to GD2-EATs
Procedure: (§3) Immunohistochemistry and immunofluorescence staining. Immunohistochemistry (TIC) staining were performed at the MSK Molecular Cytology Core Facility using Discovery XT processor (Ventana Medical Systems). Tumor samples were fixed and embedded in paraffin. Anti-human CD45, anti-human CD3, anti-human CD4, anti-human CD8, anti-mouse CD31 antibodies were used, which was followed by biotinylated secondary antibody. The detection was performed using a DAB detection kit (Ventana Medical Systems) or Alexa Fluor™ 488 or 568 Tyramide Reagent (Invitrogen). IHC images were captured from tumor sections using a Nikon ECLIPSE Ni-U microscope and NIS-Elements 4.0 imaging software. Antigen positive cells were counted with Qupath 0.1.2 or using positive pixel count analysis.
(§4) Positive Pixel Count Analysis. IHC slides were scanned (Aperio ScanScope XT) and analyzed by comparing positive pixel counts (Aperio Technologies). For analyzing tumor infiltrating lymphocytes, the largest area of intact tumor tissue was included, and oblique sections were avoided. Each slide was visually inspected to ensure specificity and sensitivity of antibody staining. After positive pixel count analysis was run, analyzed slides were examined to confirm that positively identified pixels were consistent with lymphocyte staining and not background staining. Percentages were calculated as the total number of positive pixels divided by the total number of pixels (% positive pixels/total pixels).

GD2(+) neuroblastoma PDX = experiment: Bioluminescence imaging of Luc(+) GD2-EATs in GD2(+) neuroblastoma PDX; type: in vivo, mice
Procedure: T cell transduction. T cells isolated from peripheral blood were stimulated with Dynabeads™ Human T-Activator CD3/CD28 for 24 hours. T cells were transduced with retroviral constructs containing tdTomato and click beetle red luciferase in RetroNectin-coated 6-well plates in the presence of IL-2 (100 IU/ml) and protamine sulfate (4 μg/mL). Transduced T cells were cultured for 8 days before being used in animal experiments.
as §2, with “Bioluminescence imaging. Mice” for “Mice”, “Biotechnology)” for “Biotechnology, St. Louis, MO)”, “vivo” for “Vivo”, “Sciences).” for “Sciences, Waltham, MA).”, “(Xenogen).” for “(Xenogen, Alameda, CA).”

neuroblastoma PDXs = experiment: Flow cytometry of tumor infiltrating myeloid cells and lymphocytes in neuroblastoma PDXs; type: in vivo, mice; conditions: day 10 post-treatment
Excerpt: (§5) For blood and tumor samples from mice, the following antibodies were purchased from Biolegend: anti-human CD45-APC (HI30), anti-human CD3-Percp/Cy5.5 (SK7), anti-human CD8-FITC, anti-human CD4-PE/Cy7, anti-mouse CD45-APC, anti-mouse CD45-Brilliant Violet 711™ (30-F11), anti-mouse CD11b-Brilliant Violet 570™ (M1/70), anti-mouse Ly6G-FITC, anti-mouse Ly6C-PerCP/Cy5.5, and anti-mouse F4/80-PE/Cy7. Statistical analysis
(§6) Flow cytometry analysis. For flow cytometry analyses of blood and tumor samples from mice, the following antibodies were purchased from Biolegend: anti-human CD45-APC (HI30), anti-human CD3-Percp/Cy5.5 (SK7), anti-human CD8-FITC, anti-human CD4-PE/Cy7, anti-mouse CD45-Brilliant Violet 711™ (30-F11), anti-mouse CD11b-Brilliant Violet 570™ (M1/70), anti-mouse Ly6G-FITC, anti-mouse Ly6C-PerCP/Cy5.5, and anti-mouse F4/80-PE.

tumor microvasculature = experiment: IHC of intratumoral blood vessels (mCD31) and HIF-1α in neuroblastoma PDXs; type: in vivo, mice
Procedure: as §3
as §4, with “Each slide was visually inspected to ensure specificity and sensitivity of antibody staining.” left out

[5] = system: osteosarcoma cell line 143B xenografts; type: in vivo, mice; conditions: day 60 post-treatment, agents added to GD2-EATs, vs GD2-EATs alone
Excerpt: as §5, §6

[6] = system: red blood cell, leukocyte, or platelet counts; experiment: Complete blood count after GD2-EATs with VEGF blockades, neuroblastoma PDX mice; type: in vivo; conditions: GD2-EATs following bevacizumab or DC101
Procedure: To test if VEGF blockades affected complete blood cell counts (CBC) or frequencies of tumor infiltrating myeloid cells (TIMs), CBC and flow cytometry analysis of tumors were done after the first and third doses of GD2-EATs following bevacizumab or DC101. […] The effect on TIMs was also analyzed using flow cytometry of tumors. […] TIM analysis in a second tumor model was repeated using 143B CDXs where blood and tumors were analyzed on day 5 and day 60 post treatment, respectively.

[7] = system: osteosarcoma cell line 143B xenografts; experiment: In vivo anti-tumor effect against osteosarcoma cell line 143B xenografts
Procedure: All animal procedures were performed in compliance with Memorial Sloan Kettering Cancer Center's institutional Animal Care and Use Committee (IACUC) guidelines. BALB/c Rag2^−/−IL-2Rγc^−/− (BRG) mice were used in this study. Target antigen (+) patient-derived xenograft (PDX) was established from fresh surgical specimens with MSKCC IRB approval. Tumor cells in Matrigel (Corning Corp, Corning, NY) were implanted subcutaneously on the right flank of each mouse. Tumor size was measured using handheld Peira TM900 imaging device (Piera, Brussels, BE). Tumor growth curves and overall survival was analyzed, and the overall survival was defined as the time from start of treatment to when tumor volume reached 2000 mm^3. To define the well-being of mice, CBC analyses, changes in body weight, behavior and physical appearance were monitored. All animal experiments were repeated twice more with different donor's T cells to ensure that the results were reliable.
In vivo anti-tumor effect was compared by area under curve (AUC) and survival curves, which were calculated. Differences between samples indicated in the figures were tested for statistical significance by two-tailed Student's t-test for two sets of data while one-way ANOVA with Tukey's post hoc test was used to among three or more sets of data. […]
Therapeutic study with mouse xenograft model All animal procedures were performed in compliance with Memorial Sloan Kettering Cancer Center's institutional Animal Care and Use Committee (IACUC) guidelines. […] Treatment was initiated after tumors were established, average tumor volume of 100 mm^3 when measured using TM900 scanner (Piera, Brussels, BE). […] Tumor growth curves and overall survival were analyzed, and the overall survival was defined as the time from start of treatment to when tumor volume reached 2000 mm^3. To define the well-being of mice, CBC analyses, changes in body weight, behavior and physical appearance were monitored. […]
Statistical analysis. […] Area under curves (AUCs) of tumor growth were calculated and compared among groups. […]

[8] = agent added to GD2-EATs, compared to GD2-EATs alone

In the case of `C[C@@H]1C[C@H]2[C@@H]3CCC4=CC(=O)C=C[C@]4(C)[C@@]3(F)[C@@H](O)C[C@]2(C)[C@@]1(O)C(=O)CO` [dexamethasone], the “mean signal intensity on day 5 vs GD2-EATs alone” value (GD2(+) osteosarcoma PDX) is reported as “more than 10 times” and the weight loss (M37 breast cancer PDX) is reported as “suffered weight loss around day 30 post treatment”.

With “bevacizumab: anti-human VEGF (hVEGF) antibody bevacizumab” the “serum h-VEGF levels” value (hVEGF) was “significantly reduced serum h-VEGF levels”, the “CD3+ T cell infiltration / count in tumors (IHC)” value [1] was “significantly increased” and the “CD3+ T cell infiltration / count in tumors (IHC)” value ([1]; listed as anti-VEGF) was “significantly increased T cell count”. The “Fold increase in BLI (AUC-BLI)” value [2] was 7.5, the “TH1 cell cytokines (IL-2, IFN-γ, and TNF-α)” value [3] was “significantly lower” and the “CD4(+) TIL increase compared to GD2-EATs alone” value [4] was 1.1 fold. For the same molecule, the “CD8(+) TIL increase compared to GD2-EATs alone” value [4] was 5 fold, the “increase of CD3(+) TILs compared to GD2-EATs alone” value [4] was 3 fold and the TIL persistence (GD2(+) neuroblastoma PDX; added to GD2-EATs) was “significantly prolonging TIL persistence”. For the same molecule, the “Fold increase in BLI (AUC-BLI)” value (GD2(+) neuroblastoma PDX; neuroblastoma PDX, control GD2-EATs) was 2.8, the “frequencies of intratumoral hCD45(+) T cells” value (neuroblastoma PDXs) was “much more pronounced” and the “high endothelial venules (HEVs) in tumors” value (tumor microvasculature; combined with GD2-EATs) was “induced high endothelial venules (HEVs) in tumors”. The “mCD31(+) blood vessels” value (tumor microvasculature; day 10 post-treatment) was “significant increase in mCD31(+) blood vessels”, the “tumor infiltrating hCD45(+) and CD8(+) T cells (TILs)” value [5] was “significantly increased” and the “tumor infiltrating hCD45(+) and CD8(+) T cells (TILs)” value ([5]; listed as anti-VEGF) was “increased frequencies of tumor infiltrating hCD45(+) T cells and CD8(+) T cells”. For the same molecule, the “red blood cell, leukocyte, or platelet counts” value [6] was “no significant changes”, the anti-tumor effect ([7]; VEGF blockade with unarmed T cells) was “did not show any anti-tumor effect” and the survival [7, 8] was “prolonging mouse survival”. The “tumor control / anti-tumor response” value [7, 8] was “significantly improved”.
